The test has as its target T1, hMCHR1 (Homo sapiens, UniProt Q99705).
T1 construct: expressed in transfected cells; host or cells: HEK293
The experiment in a line: MCHR1 pIC50 determination FLIPR assay (calcium response to MCH challenge). Format: cell-based. Conditions: HEK293 cells stably transfected with hMCHR1; MCH challenge at 4XEC50. The method, then: MCHR^1 pIC50 Determination FLIPR™ Assay: HEK293 cells stably transfected with hMCHR1 were propagated as adherent cultures at 37° C. in a humidified incubator. Cells were split 1:8 at 90% confluency two times per week. New cell stocks were recovered from storage every two months. Cells were plated in black 384-well plates (Greiner) 24 hours prior to assay at 15,000 cells/well in 50 μL DMEM/F12, 10% FBS, 2 mM I-glutamine. Compounds to be profiled were prepared by making a stock solution at 3×10^−3M in 100% DMSO. The stock solutions were serially diluted 1:4 in 100% DMSO using JANUS (PerkinElmer) liquid handling instrument to allow for an 11 point curve in singlicate. At the time of the assay, the media was removed from the cell plate by aspiration, followed by the addition of 20 μL of loading buffer (Calcium 4 Kit, […]). Following 50 min incubation at 37° C., 10 μL of compound was added to the plates via the FLIPR™ instrument ([…]). The plates were incubated at room temperature for 15 minutes along with an MCH peptide agonist challenge plate. […] The amount of luciferase generated was quantified in a TopCount (PerkinElmer Packard) at 19.8° C. in SPC (single photon counting) mode with a 5 second count/well and subjected to a nonlinear regression analysis curve fitting program to generate pIC50s.

T1 sequence (Q99705 whole entry): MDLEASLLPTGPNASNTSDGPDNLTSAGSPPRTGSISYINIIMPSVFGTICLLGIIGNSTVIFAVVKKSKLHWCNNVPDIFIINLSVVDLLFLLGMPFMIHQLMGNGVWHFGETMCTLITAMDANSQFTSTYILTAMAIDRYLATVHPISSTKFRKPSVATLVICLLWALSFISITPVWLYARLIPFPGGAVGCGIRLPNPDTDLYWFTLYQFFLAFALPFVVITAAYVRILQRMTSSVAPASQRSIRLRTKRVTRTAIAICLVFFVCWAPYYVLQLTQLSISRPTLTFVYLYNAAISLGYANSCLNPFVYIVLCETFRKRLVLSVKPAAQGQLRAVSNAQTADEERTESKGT

Usually IC50 stands for the concentration that gives 50% inhibition. Take `CNC1C2CN(c3ccc(-n4ccc(OCc5ccc(Cl)cn5)cc4=O)cn3)CC21` (centres unmarked) [Example 14]: the IC50 came out at 45 nM.
Under `O=c1cc(OCc2ccc(Cl)cn2)ccn1-c1ccc(N2CC3CONC3C2)nc1` (centres unmarked) [Example 16] stands 56 nM.

For the origin of these results see patent US20120077795A1, “BIS-PYRIDYLPYRIDONES AS MELANIN-CONCENTRATING HORMONE RECEPTOR 1 ANTAGONISTS” (GLAXSMITHKLINE LLC, priority 2009, published 2012).
